Experimental data published in patent US6660768B2, “Parasiticidal compositions and methods of use” (Schering-Plough Animal Health Corporation, priority 2001, dated 2003).

Test: Example 3B: solubility of permethrin in PM (propylene glycol monomethyl ether), DM (diethylene glycol monomethyl ether) and PM or DPM (dipropylene glycol monomethyl ether)/d-limonene mixtures at low temperatures, seeded
Conditions: for % permethrin remaining in solution: DM
Procedure: These solutions were poured into 100 mL tubes with screw top caps. These tubes were placed in the cold water bath and allowed to come to equilibrium at the temperature of the bath. […] The seeded preparations were then thoroughly shaken, replaced in the bath and allowed to remain in the bath for a 24 hour period. The preparations were then examined for crystallization, then again thoroughly agitated and replaced in the bath for an additional time period. Samples of the supernatant were removed after additional crystallization had occurred.
The solvent mixtures tested were: dipropylene glycol monomethyl ether/d-limonene and propylene glycol monomethyl ether/d-limonene.
These solvent mixtures were evaluated at ratios of 2:1, 1:1, 1:2, and then at 8:2 and 9:1 (the first number refers to one of the glycol ethers, the second number refers to d-limonene).

CC1(C)C(C=C(Cl)Cl)C1C(=O)OCc1cccc(Oc2ccccc2)c1 (centres unmarked) [permethrin]
% Total Permethrin (65% permethrin in DPM/d-limonene, 0% d-limonene of solvent mixture, 0° C.): 58.25%
% Total Permethrin (65% permethrin in DPM/d-limonene, 0% d-limonene of solvent mixture, 5° C.): 60.53%
% Total Permethrin (65% permethrin in DPM/d-limonene, 10% d-limonene of solvent mixture, 10° C.): 61.42%
% Total Permethrin (65% permethrin in DPM/d-limonene, 20% d-limonene of solvent mixture, 10° C.): 63.46%
% Total Permethrin (65% permethrin in DPM/d-limonene, 33% d-limonene of solvent mixture, 0° C.): 61.65%
% Total Permethrin (65% permethrin in DPM/d-limonene, 33% d-limonene of solvent mixture, 5° C.): 63.92%
% Total Permethrin (65% permethrin in DPM/d-limonene, 33% d-limonene of solvent mixture, 10° C.): 64.93%
% Total Permethrin (65% permethrin in DPM/d-limonene, 50% d-limonene of solvent mixture, 0° C.): 61.55%
% Total Permethrin (65% permethrin in DPM/d-limonene, 50% d-limonene of solvent mixture, 5° C.): 64.83%
% Total Permethrin (65% permethrin in DPM/d-limonene, 50% d-limonene of solvent mixture, 10° C.): 64.30%
% Total Permethrin (65% permethrin in DPM/d-limonene, 67% d-limonene of solvent mixture, 0° C.): 61.33%
% Total Permethrin (65% permethrin in DPM/d-limonene, 67% d-limonene of solvent mixture, 5° C.): 65.55%
% Total Permethrin (65% permethrin in DPM/d-limonene, 67% d-limonene of solvent mixture, 10° C.): 64.92%
% Total Permethrin (65% permethrin in DPM/d-limonene, 100% d-limonene of solvent mixture, 0° C.): 60.27%
% Total Permethrin (65% permethrin in DPM/d-limonene, 100% d-limonene of solvent mixture, 5° C.): 62.73%
% Total Permethrin (65% permethrin in DPM/d-limonene, 100% d-limonene of solvent mixture, 10° C.): 65.88%
% Total Permethrin (65% permethrin in PM/d-limonene, 0% d-limonene of solvent mixture, 0° C.): 52.65%
% Total Permethrin (65% permethrin in PM/d-limonene, 0% d-limonene of solvent mixture, 5° C.): 59.51%
% Total Permethrin (65% permethrin in PM/d-limonene, 10% d-limonene of solvent mixture, 10° C.): 62.08%
% Total Permethrin (65% permethrin in PM/d-limonene, 20% d-limonene of solvent mixture, 10° C.): 64.35%
% Total Permethrin (65% permethrin in PM/d-limonene, 33% d-limonene of solvent mixture, 0° C.): 59.42%
% Total Permethrin (65% permethrin in PM/d-limonene, 33% d-limonene of solvent mixture, 5° C.): 63.08%
% Total Permethrin (65% permethrin in PM/d-limonene, 33% d-limonene of solvent mixture, 10° C.): 63.89%
% Total Permethrin (65% permethrin in PM/d-limonene, 50% d-limonene of solvent mixture, 0° C.): 61.74%
% Total Permethrin (65% permethrin in PM/d-limonene, 50% d-limonene of solvent mixture, 5° C.): 64.05%
% Total Permethrin (65% permethrin in PM/d-limonene, 50% d-limonene of solvent mixture, 10° C.): 64.45%
% Total Permethrin (65% permethrin in PM/d-limonene, 67% d-limonene of solvent mixture, 0° C.): 61.45%
% Total Permethrin (65% permethrin in PM/d-limonene, 67% d-limonene of solvent mixture, 5° C.): 64.86%
% Total Permethrin (65% permethrin in PM/d-limonene, 67% d-limonene of solvent mixture, 10° C.): 65.95%
% Total Permethrin (65% permethrin in PM/d-limonene, 100% d-limonene of solvent mixture, 0° C.): 60.27%
% Total Permethrin (65% permethrin in PM/d-limonene, 100% d-limonene of solvent mixture, 5° C.): 62.73%
% Total Permethrin (65% permethrin in PM/d-limonene, 100% d-limonene of solvent mixture, 10° C.): 65.88%
% Total Permethrin (70% permethrin in DPM/d-limonene, 0% d-limonene of solvent mixture, 0° C.): 64.24%
% Total Permethrin (70% permethrin in DPM/d-limonene, 0% d-limonene of solvent mixture, 5° C.): 65.56%
% Total Permethrin (70% permethrin in DPM/d-limonene, 0% d-limonene of solvent mixture, 10° C.): 66.58%
% Total Permethrin (70% permethrin in DPM/d-limonene, 10% d-limonene of solvent mixture, 10° C.): 66.95%
% Total Permethrin (70% permethrin in DPM/d-limonene, 20% d-limonene of solvent mixture, 10° C.): 67.71%
% Total Permethrin (70% permethrin in DPM/d-limonene, 33% d-limonene of solvent mixture, 5° C.): 69.64%
% Total Permethrin (70% permethrin in DPM/d-limonene, 33% d-limonene of solvent mixture, 10° C.): 67.38%
% Total Permethrin (70% permethrin in DPM/d-limonene, 50% d-limonene of solvent mixture, 0° C.): 65.66%
% Total Permethrin (70% permethrin in DPM/d-limonene, 50% d-limonene of solvent mixture, 5° C.): 68.48%
% Total Permethrin (70% permethrin in DPM/d-limonene, 50% d-limonene of solvent mixture, 10° C.): 66.70%
% Total Permethrin (70% permethrin in DPM/d-limonene, 67% d-limonene of solvent mixture, 0° C.): 66.05%
% Total Permethrin (70% permethrin in DPM/d-limonene, 67% d-limonene of solvent mixture, 5° C.): 69.38%
% Total Permethrin (70% permethrin in DPM/d-limonene, 67% d-limonene of solvent mixture, 10° C.): 67.98%
% Total Permethrin (70% permethrin in DPM/d-limonene, 100% d-limonene of solvent mixture, 0° C.): 64.61%
% Total Permethrin (70% permethrin in DPM/d-limonene, 100% d-limonene of solvent mixture, 5° C.): 66.05%
% Total Permethrin (70% permethrin in DPM/d-limonene, 100% d-limonene of solvent mixture, 10° C.): 69.30%
% Total Permethrin (70% permethrin in PM/d-limonene, 0% d-limonene of solvent mixture, 0° C.): 57.91%
% Total Permethrin (70% permethrin in PM/d-limonene, 0% d-limonene of solvent mixture, 5° C.): 64.79%
% Total Permethrin (70% permethrin in PM/d-limonene, 10% d-limonene of solvent mixture, 10° C.): 66.70%
% Total Permethrin (70% permethrin in PM/d-limonene, 20% d-limonene of solvent mixture, 10° C.): 66.92%
% Total Permethrin (70% permethrin in PM/d-limonene, 33% d-limonene of solvent mixture, 0° C.): 65.20%
% Total Permethrin (70% permethrin in PM/d-limonene, 33% d-limonene of solvent mixture, 5° C.): 67.36%
% Total Permethrin (70% permethrin in PM/d-limonene, 33% d-limonene of solvent mixture, 10° C.): 67.80%
% Total Permethrin (70% permethrin in PM/d-limonene, 50% d-limonene of solvent mixture, 0° C.): 65.36%
% Total Permethrin (70% permethrin in PM/d-limonene, 50% d-limonene of solvent mixture, 5° C.): 69.65%
% Total Permethrin (70% permethrin in PM/d-limonene, 50% d-limonene of solvent mixture, 10° C.): 68.40%
% Total Permethrin (70% permethrin in PM/d-limonene, 67% d-limonene of solvent mixture, 0° C.): 65.94%
% Total Permethrin (70% permethrin in PM/d-limonene, 67% d-limonene of solvent mixture, 5° C.): 68.33%
% Total Permethrin (70% permethrin in PM/d-limonene, 100% d-limonene of solvent mixture, 0° C.): 64.61%
% Total Permethrin (70% permethrin in PM/d-limonene, 100% d-limonene of solvent mixture, 5° C.): 66.05%
% permethrin remaining in solution (5° C., Original % permethrin 50): 46.00%
% permethrin remaining in solution (5° C., Original % permethrin 55): 51.74%
% permethrin remaining in solution (5° C., Original % permethrin 60): 55.09%
% permethrin remaining in solution (5° C., Original % permethrin 65): 60.22%
% permethrin remaining in solution (10° C., Original % permethrin 50): 46.80%
% permethrin remaining in solution (10° C., Original % permethrin 55): 50.72%
